Assay results as given in patent publication US10933053B2, “Treating infections with ceftolozane/tazobactam in subjects having impaired renal function” (MERCK SHARP & DOHME CORP., priority 2013, dated 2021).

Experiments:
clinical [1] = details: human, in vivo, t1/2, geometric mean
Protocol: The extent of ceftolozane exposure increases with decreasing renal function. […] In subjects with moderate renal impairment, exposure approximately doubles relative to that in subjects with normal renal function.
For tazobactam, this estimated exposure from a dose of 125 mg in subjects with severe renal impairment not on hemodialysis is similar to that achieved with 500 mg tazobactam in subjects with normal renal function (23.8 μg·h/mL).

clinical [2] = details: for Cmax: mean (CV %); for Tmax: median (minimum, maximum)
Text: The intravenous formulation of CXA-201 can be prepared by reconstituting a fixed dose combination mixture of two active components (ceftolozane and tazobactam), and intravenously administering the reconstituted pharmaceutical composition. The pharmacokinetic (PK) profile of ceftolozane/tazobactam has been studied in several preclinical and clinical studies.
The pharmacokinetic (PK) profile of ceftolozane/tazobactam has been studied in several preclinical and clinical studies.

clinical [3] = details: both, human, in vivo; for Vd: Vss
Protocol: This was a Phase 1, multicenter, prospective, open-label study of 750 mg ceftolozane/tazobactam (as CXA-201) administered IV in male and female adult subjects with severe renal impairment (estimated CLCR<30 mL/min) and subjects with end-stage renal disease (ESRD) on hemodialysis (HD). The primary objective of the study was to determine the PK profile of ceftolozane/tazobactam in subjects with severe renal impairment and subjects with ESRD on HD and to determine the effect of HD on the clearance of ceftolozane/tazobactam.
Subjects with severe renal impairment received a single IV 1-hour infusion of 750 mg ceftolozane/tazobactam on Day 1. […] Subjects in this cohort received an IV dose of 750 mg ceftolozane/tazobactam as a 1 hour infusion immediately after their first HD session on Day 1 (post dialysis, approximately 72 hours prior to the next HD session) and a second dose of ceftolozane/tazobactam approximately 2 hours before their second HD session on Day 4 of the study. Infusion of ceftolozane/tazobactam was completed approximately 1 hour before the start of HD.
Subjects in both cohorts had urine (if not anuric) and plasma samples collected for determination of levels of ceftolozane, tazobactam and the M1 metabolite of tazobactam; subjects in the ESRD on HD cohort also had dialysate fluid samples collected for PK assessment. Plasma, urine, and dialysate levels of ceftolozane, tazobactam, and its metabolite M1 collected over a prespecified interval were determined by LC/MS/MS assay.
All subjects underwent hemodialysis for 3 to 4 hours using a high-flux membrane (either 1.4, 1.8, or 1.9 m^2) on Days 1, 4, and 6 as scheduled. Average blood flow rate was 264 to 600 mL/min and average dialysis flow rate was either 600 or 800 mL/min for all subjects with ESRD.
All cohorts received ceftolozane/tazobactam as an intravenous infusion over 1 h. The normal, mild, and moderate renal impairment cohorts received a single dose of ceftolozane/tazobactam 1,000 mg/500 mg; the severe renal impairment cohort received a single dose of ceftolozane/tazobactam 500 mg/250 mg; the ESRD cohort received a dose of ceftolozane/tazobactam 500 mg/250 mg initiated at the end of HD on day 1 and another dose initiated 2 h before HD on day 4. Subjects with ESRD underwent HD for 3 to 4 h using a high-flux membrane as scheduled; average dialysis flow rate was 600 to 800 ml/min. Revaclear hemodialyzers (Gambro, Stockholm, Sweden) were used in 5 subjects (ultrafiltration coefficient 50 to 60 ml/h/mmHg, high flux membrane of 1.4 to 1.8 m^2) and a CT 190G hemodialyzers (Baxter Healthcare, McGaw Park, Ill.) was used in 1 subject (ultrafiltration coefficient 36 ml/h/mmHg, high flux membrane of 1.9 m^2). The average blood flow rate was 400 to 600 ml/min with the exception of one subject with rates between 264 and 400 ml/min.
Plasma concentrations of ceftolozane and tazobactam were measured prior to, during, and following administration of ceftolozane/tazobactam. Blood samples were collected 30 min prior to administration, at the end of administration and at 5, 15, and 30 min and 1, 2, 3, 5, 7, 9, 11, 15, 25, and 35 h after completion of ceftolozane/tazobactam administration in the normal, mild, and moderate renal impairment cohorts. Severe renal impairment and ESRD cohorts off HD had samples taken 30 min prior to administration and at 0.5, 1, 1.5, 2, 3, 6, 9, 12, 24, 36, and 48 h after the start of administration. On the day of and following HD, the subjects with ESRD had samples taken 30 min prior to administration and at 0.5, 1, 1.5, 2, 3, 4, 5, 6, 9, 12, 24, 36, and 44 h after the start of the administration. The entire dialysate was collected at each of the following intervals: 0 to 1, 1 to 2, 2 to 3, and 3 h to the end of dialysis. Urine for PK analysis was obtained in the normal, mild, and moderate cohorts at 0 to 2, 2 to 4, 4 to 8, 8 to 12, 12 to 24, and 24 to 36 h after the start of ceftolozane/tazobactam administration.

Cn1c(N)c(NC(=O)NCCN)c[n+]1CC1=C(C(=O)O)N2C(=O)[C@@H](NC(=O)/C(=N\OC(C)(C)C(=O)O)c3nsc(N)n3)[C@H]2SC1 [Ceftolozane, (6R,7R)-3-[(5-amino-4-{[(2-aminoethyl)carbamoyl]amino}-1-methyl-1H-pyrazol-2-ium-2-yl)methyl]-7-({(2Z)-2-(5-amino-1,2,4-thiadiazol-3-yl)-2-[(1-carboxy-1-methylethoxy)imino]acetyl}amino)-8-oxo-5-thia-1-azabicyclo[4.2.0]oct-2-ene-2-carboxylate]
half-life (clinical [1]): 5.85 h
AUC(0-t) (clinical [2]; human, in vivo): 172 µg·h/mL
CL renal (clinical [2]; human, in vivo): 56.8 to 112 mL/min
Cmax, mean (CV %) (clinical [2]; human, in vivo): 74.4 (14) μg/mL
clearance (clinical [2]; human, in vivo): 68.3 to 112 mL/min
t1/2, mean (CV %) (clinical [2]; human, in vivo): 3.12 (22) h
tmax, median (minimum, maximum) (clinical [2]; human, in vivo): 1.07 (1.0, 1.1) h
Cmax (clinical [2]; human, in vivo): 69100 ng/mL
half-life (clinical [2]; human, in vivo, t1/2, mean (CV %)): 2.77 h
half-life (clinical [2]; human, in vivo, terminal elimination half-life (t1/2β)): ~2.5 h
Tmax (clinical [2]; human, in vivo): 1.02 h
excreted in the urine as unchanged parent drug (clinical [2]; male, human, in vivo, iv): greater than 95%
AUC (clinical [3]): 87 µg·h/mL
AUC48h Ratio (Day 3:1), median (range) (clinical [3]): 0.34 (0.26-0.48)
CLss (clinical [3]): 5.01 (4.11-10.7) L/hr
Change in Concentration (clinical [3]): 32.3 (10.2-44.8)
Clast (clinical [3]): 2.88 (1.23-4.48) μg/mL
Clast lower than Cmax (clinical [3]): approximately 14 fold
Cmax, mean (CV %) (clinical [3]): 40.9 (35) μg/mL
Concentration after HD (clinical [3]): 2.9 (1.2-4.5) μg/mL
Concentration before HD (clinical [3]): 34.4 (13.2-49.3) μg/mL
Half-Life, median (range) (clinical [3]): 43.2 h
Percent Removed (clinical [3]): 91.5 (72.3-96.3) %
Percent Removed, median (range) (clinical [3]): 66 (52-74)
average extraction ratio during HD (clinical [3]): 46%
median Cmax higher vs normal renal function, dose normalized (clinical [3]): 1.2 fold
rebound peak plasma concentration after HD, of the original Cmax (clinical [3]): approximately 17%
reduction in overall exposure (clinical [3]): approximately 66%
tmax, median (minimum, maximum) (clinical [3]): 1.0 (1.0, 1.0) h
AUC(0-t) (clinical [3]; AUC0-t): 97.1 µg·h/mL
AUC(0-inf) (clinical [3]; AUC0-∞): 99.8 µg·h/mL
AUC(0-inf) (clinical [3]; AUC0-∞, median (range)): 1630 µg·h/mL
AUC(0-inf) (clinical [3]; AUC∞, mean (CV %)): 1680 µg·h/mL
clearance (clinical [3]; CL, mean (CV %)): 6.67 mL/min
clearance (clinical [3]; CL, median (range)): 5 mL/min
Cmax (clinical [3]): 41100 ng/mL
Cmax (clinical [3]; median (range)): 44200 ng/mL
half-life (clinical [3]; Half-Life): 1.13 h
half-life (clinical [3]; Half-Life, median (range)): 40.5 h
Vd (clinical [3]): 7.26 L
Vd (clinical [3]; mean (CV %)): 19.2 L
Vd (clinical [3]; median (range)): 17.9 L
clearance (clinical [3]; median dialysis clearance (CLD)): 95.8 mL/min
half-life (clinical [3]; t1/2 during the HD period (median)): 1.13 h

C[C@]1(Cn2ccnn2)[C@H](C(=O)O)N2C(=O)C[C@H]2S1(=O)=O [Tazobactam, tazobactam]
half-life (clinical [1]): 1.78 h
excreted in the urine as the unchanged parent drug (clinical [2]; healthy volunteers): 80%
half-life (clinical [2]; human, in vivo, intravenous, terminal elimination half-life (t1/2β), healthy volunteers / normal renal function): ~1 h
AUC(0-t) (clinical [2]; human, plasma, intravenous, 1.5 g): 24.4 µg·h/mL
Cmax (clinical [2]; human, plasma, intravenous, 1.5 g, 1.5 g q8h 1-hour infusion, healthy adults, Day 1): 18400 ng/mL
Cmax (clinical [2]; human, plasma, intravenous, 1.5 g, 1.5 g q8h 1-hour infusion, healthy adults, Day 10): 18000 ng/mL
half-life (clinical [2]; human, plasma, intravenous, 1.5 g, t1/2, mean (CV %), 1.5 g q8h, healthy adults, Day 10): 1.03 h
Tmax (clinical [2]; human, plasma, intravenous, 1.5 g, 1.5 g q8h, healthy adults, Day 1): 1.02 h
half-life (clinical [2]; human, plasma, intravenous, terminal elimination half-life (t1/2β), healthy volunteers / normal renal function): ~1 h
excreted in the urine as unchanged parent drug (clinical [2]; single 1.5 g IV dose of CXA-201, healthy male adults): More than 80%
AUC (clinical [3]): 26.4 µg·h/mL
AUC48h Ratio (Day 3:1), median (range) (clinical [3]): 0.44 (0.26-0.53)
CLss (clinical [3]): 8.53 (5.53-15.9) L/hr
Change in Concentration (clinical [3]): 10.5 (3.6-17.6)
Clast (clinical [3]): 0.46 (0.13-1.14) μg/mL
Clast lower than Cmax (clinical [3]): ~32 fold
Concentration after HD (clinical [3]): 0.5 (0.1-1.1) μg/mL
Concentration before HD (clinical [3]): 10.8 (3.9-18.7) μg/mL
Half-Life, median (range) (clinical [3]): 5.0 (1.9-8.5) hr
Percent Removed (clinical [3]): 95.3 (83.8-98.6) %
Percent Removed, median (range) (clinical [3]): 56 (47-74)
Tmax (clinical [3]): 1.00 (1.00-1.00) hr
Tmax, median (range) (clinical [3]): 1.0 (1.0-1.0) hr
average extraction ratio during HD (clinical [3]): 53%
median Cmax higher vs normal renal function, dose normalized (clinical [3]): 2.4 fold
median dialysis clearance (CLD) (clinical [3]): 4.39 (1.36-6.29) L/hr
rebound peak plasma concentration after HD, of the original Cmax (clinical [3]): ~6%
reduction in overall exposure (clinical [3]): ~56%
removed by dialysis (clinical [3]): ~56%
t1/2 during the HD period (median) (clinical [3]): 0.91 h
AUC(0-inf) (clinical [3]; AUC0-∞): 29.4 µg·h/mL
AUC(0-inf) (clinical [3]; AUC0-∞, median (range)): 109 µg·h/mL
clearance (clinical [3]; CL, median (range)): 40 mL/min
Cmax (clinical [3]): 14900 ng/mL
Cmax (clinical [3]; median (range)): 20200 ng/mL
half-life (clinical [3]; Half-Life, median (range)): 4.21 h
Vd (clinical [3]): 10.4 L
Vd (clinical [3]; median (range)): 15.2 L
